Source: PubChem BioAssay (NCI)
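How tested: cells in 96-well plates exposed to compound for 48 hours at five concentrations. GI50 = concentration required for 50% inhibition of growth. At the TGI there is no net growth.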

How the values were obtained:
Assay in all cases: NCI anticancer screen, dose series, 48 h
[1] = system: SF-295 CNS
[2] = system: MOLT-4 leukemia
[3] = system: OVCAR-4 ovarian
[4] = system: HOP-62 NSCLC
[5] = system: SNB-19 CNS
[6] = system: UO-31 renal
[7] = system: MDA-MB-231 breast
[8] = system: SW-620 colon
[9] = system: A498 renal
[10] = system: M14 melanoma

Row | SMILES | GI50 [1] | TGI [1] | GI50 [2] | TGI [2] | GI50 [3] | TGI [3] | GI50 [4] | TGI [4] | GI50 [5] | TGI [5] | GI50 [6] | TGI [6] | GI50 [7] | TGI [7] | GI50 [8] | TGI [8] | GI50 [9] | TGI [9] | TGI [10] | GI50 [10]
1 | O=C(Cc1csc2nc(-c3ccc(Cl)cc3)cn12)N/N=C/c1ccccc1O | 5.21 µM | > 100 µM | 2170 nM | > 100 µM | 1.5 µM | > 100 µM | 4.67 µM | > 100 µM | 12.3 µM | > 100 µM | 504 nM | 43.9 µM | 13.1 µM | > 100 µM | 6.81 µM | > 100 µM | 8.32 µM | > 100 µM |  | 
2 | Cc1n[n+]([O-])c(C)cc1[N+](=O)[O-] |  |  |  |  |  | 33.5 µM |  | 42.7 µM |  | > 100 µM |  | 29.7 µM |  | 39.8 µM |  | 28.2 µM |  | 40.6 µM | 30.7 µM | 
3 | CC(C)CC1c2[nH]c3ccccc3c2C[C@H]2C(=O)NC(CCCCNC(=O)OC(C)(C)C)C(=O)N12 (stereo partly drawn) |  | 40.9 µM |  | 51.8 µM |  | > 100 µM |  | > 100 µM |  | > 100 µM |  | > 100 µM |  | 51.1 µM |  | > 100 µM |  | > 100 µM | > 100 µM | 
4 | COc1ccc(-n2c3c(c4cc(O)ccc42)Cc2ccccc2C3=O)cc1 |  | 86.7 µM |  | > 100 µM |  | 82.1 µM |  | > 100 µM |  | > 100 µM |  | > 100 µM |  | > 100 µM |  | > 100 µM |  | > 100 µM | > 100 µM | 
5 | Cc1cc2ccc(OC(=O)c3ccc(N=C(N)N)cc3)cc2oc1=O |  | > 100 µM |  | 54.4 µM |  | 46.6 µM |  | 48.5 µM |  | 54.8 µM |  | > 100 µM |  | 49.2 µM |  | 78.5 µM |  | 43.9 µM | 97.7 µM | 
6 | Clc1ccc(Nc2nc(Nc3ccccc3)nc(Nc3ccc(-c4cc(-c5ccc(Cl)cc5)on4)cc3)n2)cc1 | 12.6 µM | 77.6 µM | 21000 nM | > 100 µM | 15.4 µM | > 100 µM | 18.4 µM | > 100 µM | 45.6 µM | > 100 µM |  |  | 10.5 µM | 66.3 µM | 26.4 µM | > 100 µM | 3.38 µM | 55.1 µM |  | 
7 | COc1cc(C2SCC(=O)N2c2ccc(NC(C)=O)cc2)cc(OC)c1OC (stereo not drawn) |  | > 100 µM |  | > 100 µM |  | > 100 µM |  |  |  | > 100 µM |  | > 100 µM |  | > 100 µM |  | > 100 µM |  | > 100 µM | > 100 µM | 
8 | O=C(O)C(O)C(O)C(O)C(O)C(=O)O (stereo not drawn) |  | > 100 µM |  | > 100 µM |  | > 100 µM |  | > 100 µM |  | > 100 µM |  | > 100 µM |  | > 100 µM |  | > 100 µM |  | > 100 µM | > 100 µM | 
9 | N=c1ccc2nc(N)nn(O)c-2c1 |  |  |  | > 100 µM |  | > 100 µM |  | > 100 µM |  | > 100 µM |  | > 100 µM |  | > 100 µM |  | > 100 µM |  | > 100 µM | > 100 µM | 
10 | CC1(C(=O)O)C[C@](C)(C(=O)OCc2ccccc2)C[C@](C)(C(=O)OCc2ccccc2)C1 (stereo partly drawn) |  | 61.9 µM |  | 67.6 µM |  | > 100 µM |  | > 100 µM |  | > 100 µM |  | 40.7 µM |  |  |  | > 100 µM |  |  | > 100 µM | 
11 | O=C(CC(c1ccccc1)C1C(=O)NC(=S)NC1=O)c1ccc([N+](=O)[O-])cc1 (stereo not drawn) |  | > 100 µM |  | > 100 µM |  | > 100 µM |  | > 100 µM |  | > 100 µM |  | > 100 µM |  | > 100 µM |  | > 100 µM |  | > 100 µM | > 100 µM | 
12 | COc1ccc(-c2nn(-c3ccc(NC(=O)c4cc(Cl)cc(Cl)c4)cc3)cc2-c2ccncc2)cc1Cl | 0.695 µM | 5.49 µM | 2830 nM | > 100 µM | > 100 µM | > 100 µM | 8.12 µM | > 100 µM | > 100 µM | > 100 µM | 3430 nM | > 100 µM | 1.39 µM | 4.85 µM | > 100 µM | > 100 µM | 3.04 µM | > 100 µM | 9.08 µM | 2400 nM
13 | Cc1cc(S(=O)(=O)NC2=NCCN2Cc2ccccc2)c(S)cc1Cl |  | > 100 µM |  | > 100 µM |  | > 100 µM |  | > 100 µM |  | > 100 µM |  |  |  | > 100 µM |  | > 100 µM |  |  | > 100 µM | 
14 | CCOC(=O)c1c(-c2cccc(Cl)c2)c(C(=O)OC)c(C)c2sc(C=O)nc12 |  | 32.5 µM |  | 48.1 µM |  | 40.3 µM |  | 28.8 µM |  | > 100 µM |  | 37.8 µM |  | 34.6 µM |  | > 100 µM |  |  | 31.4 µM | 
15 | C[N+]1(CCC(=O)c2ccccc2)CCC2CCC(C2)C1 (stereo not drawn) |  | > 100 µM |  | > 100 µM |  | > 100 µM |  | > 100 µM |  | > 100 µM |  | > 100 µM |  | > 100 µM |  | > 100 µM |  | > 100 µM | > 100 µM | 
16 | O=C(O)C1CCCCN1C(=O)Cc1c[nH]c2ccccc12 (stereo not drawn) |  | > 100 µM |  | > 100 µM |  | > 100 µM |  | > 100 µM |  | > 100 µM |  |  |  | > 100 µM |  | > 100 µM |  |  | > 100 µM | 
17 | CN(C)C(=O)OC1=CC2CCC(C1)N2C (stereo not drawn) |  | > 100 µM |  | > 100 µM |  | > 100 µM |  | > 100 µM |  | > 100 µM |  | > 100 µM |  | > 100 µM |  | > 100 µM |  | > 100 µM | > 100 µM | 
